Usually half-life stands for the time in which the quantity being followed falls by half.

This is an account of results in paper PMC9306349, “A Process for the Design and Development of Novel Bone Morphogenetic Protein-7 (BMP-7) Mimetics With an Example: THR-184” (Frontiers in Pharmacology, 2022).

Where two headings read alike, the source gives them in different places. Marks after values point to notes of the source that are not given here. Bridge positions count the residues as written; N and C are the ends. Peptide text beside a SMILES is read from it.

Series [1] has as its system patients having major cardio-vascular surgery requiring the cardiopulmonary pump. Description: Phase II clinical trial NCT01830920, AKI after cardio-vascular surgery with cardiopulmonary pump. The format is in vivo, human. Particulars: clinical trial pharmacokinetic data; large variability of C Max and AUC. An excerpt:
The objective of the Phase II clinical trial, NCT01830920, ([Thrasos Innovation, Inc, 2013]), was to establish the dose, safety, and preliminary efficacy of THR-184 in a targeted patient population having major cardio-vascular surgery requiring the use of the cardiopulmonary pump The primary outcome of this clinical trial was the proportion of patients who develop AKI according to the KDIGO criteria ([Kidney Disease: Improving Global Outcomes (KDIGO) Acute Kidney Injury Work Group, 2012]). […] Use of urinary creatinine is not part of the KDIGO AKI criteria, but rather it is the urinary output that is part of the AKI definition. […] The clinical trial included serum samples for the analysis of KIM-1 and NGAL as exploratory endpoints, but there are as yet no published results from those samples.
SAE: number of Serious Adverse Events.

In series [2] the test system is adult healthy male and female volunteers. Particulars: ref Himmelfarb et al., 2018, cited from earlier work. As for the experimental part: In the first study, THR-P-427 (SAD), the drug (THR-184) was administered as slow intravenous infusions in a total of 40 adult healthy male and female volunteers. The study drug or placebo was administered once on the morning after a 10-h overnight fast. The solution was administered by slow injection via an indwelling catheter, at an infusion rate of 1 ml/min over 60 min. Five dose levels were studied: 0.3 mg/kg, 1 mg/kg, 3 mg/kg, 6 mg/kg and 10 mg/kg. Adverse events were recorded continuously during the study.

Series [3] deals with patients having major cardio-vascular surgery requiring the cardiopulmonary pump. Particulars: ref Himmelfarb et al., 2018, cited from earlier work.
The target of a further series is CYP450 2C9 (Homo sapiens, UniProt P11712). Description: CYP450 isoform effect. The class given is in vitro ADME. An excerpt: (§1) TABLE 2 THR-184 overview.
In a further series the target is CYP450 2C19 (Homo sapiens, UniProt P33261). Description: CYP450 isoform effect. The format is in vitro ADME.
Text: as §1

The target of another series is CYP450 2D6 (Homo sapiens, UniProt P10635). As to the kind of experiment: CYP450 isoform effect. The format is in vitro ADME.
Text: as §1

The target of another series is CYP450 3A4 (Homo sapiens, UniProt P08684). Description: CYP450 isoform effect. The format is in vitro ADME.
Text: as §1

The next series relates to bleeding time.
Text: as §1

The test system of the next series is wound healing.
Text: as §1

Another series has as its system hemodynamics.
Text: as §1

A further series can be described thus: Off-target survey. Particulars: 114 targets surveyed.
Text: as §1

For series [4] the following is noted: cited from earlier work.
Series [5] is described as follows: Stability of THR-184 in human plasma with and without ACE inhibitor. The class given is in vitro ADME. Particulars: compound administered with an ACE inhibitor, read-out: serum half-life. The text has this: Protease degradation of drug candidates can shorten their in-plasma half-life to the point that therapeutic exposure is severely compromised resulting in loss of efficacy.

A further series deals with cancer growth. Description: Preclinical overview: cancer growth.
Text: as §1

Series [6] deals with adult healthy male and female volunteers. The conditions noted are these: ref Himmelfarb et al., 2018, cited from earlier work. How it is done:
In the second study, THR-P-428 (MAD), THR-184 was administered as a slow intravenous infusion in a total of 24 adult healthy male and female volunteers, once daily over five consecutive days. THR-184 or the placebo was administered on the morning after a 10-h overnight fast. The solution was administered by slow injection via an indwelling catheter, at an infusion rate of 1 ml/min over 60 min. Three dose levels were studied: 0.3 mg/kg, 1 mg/kg, and 3 mg/kg. Adverse events were recorded continuously during the study.
The source holds these as a separate data set.

The next series addresses T1, CYP450 1A2 (Homo sapiens, UniProt P05177).
T1 sequence (P05177 1-516): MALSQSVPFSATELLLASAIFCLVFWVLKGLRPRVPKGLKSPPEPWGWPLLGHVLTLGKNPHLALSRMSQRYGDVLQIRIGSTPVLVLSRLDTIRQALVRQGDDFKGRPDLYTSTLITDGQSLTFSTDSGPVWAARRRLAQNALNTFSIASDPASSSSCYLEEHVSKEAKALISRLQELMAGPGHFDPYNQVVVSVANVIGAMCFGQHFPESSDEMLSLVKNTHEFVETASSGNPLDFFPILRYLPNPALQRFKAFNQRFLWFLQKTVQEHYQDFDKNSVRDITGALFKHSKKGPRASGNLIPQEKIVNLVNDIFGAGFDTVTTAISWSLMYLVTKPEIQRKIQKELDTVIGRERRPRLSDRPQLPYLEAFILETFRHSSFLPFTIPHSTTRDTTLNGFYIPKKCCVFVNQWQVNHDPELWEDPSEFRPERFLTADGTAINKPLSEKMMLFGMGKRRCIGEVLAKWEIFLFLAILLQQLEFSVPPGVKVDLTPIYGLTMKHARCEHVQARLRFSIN
The format is in vitro ADME.
Text: as §1

A further series deals with ectopic bone formation. As to the kind of experiment: Rat implant assay of ectopic bone formation. The class given is in vivo. Particulars: implanted in muscle pocket (Hydrogel or collagen carrier device), implants removed day 14, histology toluidine blue. As for the experimental part:
FIGURE 2 Failure of BMP-7 mimetic (THR-123) to induce ectopic bone formation in rat implant assay: This assay is based on the ability of BMP-7 to induce ectopic bone formation in the rat and was carried out as described earlier (The Journal of Biological Chemistry, Vol. 267, pp. 20352-20362,1992) to determine in vivo efficacy of THR-123. Briefly, bovine bone matrix (collagen carrier)/BMP-7 or Hydrogel/BMP-7 or Hydrogel/THR-123, devices (all lyophilized) were implanted in muscle pocket. […] This work was supported by Thrasos Therapeutics.

Where [7] appears, read: occurred equally in placebo and THR-184 treated subjects.
The mark [8] stands for this setting: Arm 4 High Dose 0.46/0.02 mg/kg.
Where [9] appears, read: Arm 5 Highest Dose 0.46/0.46 mg/kg.

CYP450 2D6, sequence (P10635 whole entry, canonical isoform): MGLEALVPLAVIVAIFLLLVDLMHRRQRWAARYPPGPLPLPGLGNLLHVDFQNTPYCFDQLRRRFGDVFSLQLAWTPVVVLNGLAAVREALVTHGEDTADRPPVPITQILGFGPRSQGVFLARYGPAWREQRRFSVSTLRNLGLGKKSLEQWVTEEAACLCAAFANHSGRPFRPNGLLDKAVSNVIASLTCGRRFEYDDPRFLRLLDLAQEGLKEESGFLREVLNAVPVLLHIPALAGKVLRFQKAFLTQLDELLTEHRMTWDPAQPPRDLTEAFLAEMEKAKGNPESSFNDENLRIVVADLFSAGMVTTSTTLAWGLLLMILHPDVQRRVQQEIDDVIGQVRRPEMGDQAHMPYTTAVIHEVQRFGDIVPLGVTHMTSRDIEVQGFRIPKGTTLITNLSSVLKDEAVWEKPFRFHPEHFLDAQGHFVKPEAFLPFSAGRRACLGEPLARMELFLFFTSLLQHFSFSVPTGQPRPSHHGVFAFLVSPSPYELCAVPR
CYP450 3A4, sequence (P08684 whole entry, canonical isoform): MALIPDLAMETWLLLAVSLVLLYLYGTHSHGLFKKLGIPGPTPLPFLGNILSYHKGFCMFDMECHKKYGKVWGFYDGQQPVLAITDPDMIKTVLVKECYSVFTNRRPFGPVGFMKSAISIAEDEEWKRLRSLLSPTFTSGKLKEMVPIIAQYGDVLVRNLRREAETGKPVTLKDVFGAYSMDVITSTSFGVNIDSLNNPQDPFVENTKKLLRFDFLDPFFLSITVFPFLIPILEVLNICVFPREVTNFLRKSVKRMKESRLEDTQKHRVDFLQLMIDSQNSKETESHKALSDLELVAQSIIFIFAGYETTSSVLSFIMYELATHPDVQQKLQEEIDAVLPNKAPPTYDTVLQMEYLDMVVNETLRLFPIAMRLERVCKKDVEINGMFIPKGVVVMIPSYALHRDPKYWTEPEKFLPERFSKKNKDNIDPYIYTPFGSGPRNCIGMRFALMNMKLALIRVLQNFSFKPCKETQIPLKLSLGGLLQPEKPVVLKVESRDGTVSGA
CYP450 2C19, sequence (P33261 whole entry, canonical isoform): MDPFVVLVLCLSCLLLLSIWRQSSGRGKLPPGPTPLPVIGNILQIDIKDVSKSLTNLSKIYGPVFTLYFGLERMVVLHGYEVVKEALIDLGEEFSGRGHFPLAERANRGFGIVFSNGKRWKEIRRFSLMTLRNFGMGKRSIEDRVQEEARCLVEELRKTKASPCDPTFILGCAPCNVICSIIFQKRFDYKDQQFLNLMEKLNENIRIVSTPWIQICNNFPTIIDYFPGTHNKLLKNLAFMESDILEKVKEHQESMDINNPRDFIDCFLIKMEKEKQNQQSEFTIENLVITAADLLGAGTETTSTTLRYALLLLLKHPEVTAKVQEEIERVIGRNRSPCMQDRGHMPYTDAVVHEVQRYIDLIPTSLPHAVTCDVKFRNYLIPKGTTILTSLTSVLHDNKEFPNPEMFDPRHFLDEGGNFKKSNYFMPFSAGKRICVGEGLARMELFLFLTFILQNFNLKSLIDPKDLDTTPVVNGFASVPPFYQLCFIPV
CYP450 2C9, sequence (P11712 whole entry, canonical isoform): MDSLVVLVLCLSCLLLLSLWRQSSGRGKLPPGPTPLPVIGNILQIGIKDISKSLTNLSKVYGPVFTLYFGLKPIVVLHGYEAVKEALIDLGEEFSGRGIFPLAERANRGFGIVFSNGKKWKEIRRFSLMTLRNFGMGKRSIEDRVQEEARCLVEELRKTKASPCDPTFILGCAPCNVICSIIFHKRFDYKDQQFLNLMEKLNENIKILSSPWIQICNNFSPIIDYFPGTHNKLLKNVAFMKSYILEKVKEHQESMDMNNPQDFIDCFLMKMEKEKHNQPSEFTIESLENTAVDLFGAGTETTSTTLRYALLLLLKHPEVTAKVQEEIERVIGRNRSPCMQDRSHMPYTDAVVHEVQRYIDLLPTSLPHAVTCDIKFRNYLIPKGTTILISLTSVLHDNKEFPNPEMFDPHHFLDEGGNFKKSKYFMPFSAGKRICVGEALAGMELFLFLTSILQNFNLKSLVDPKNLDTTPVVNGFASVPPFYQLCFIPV

Regarding `CC(C)C[C@@H]1NC(=O)[C@H](C(C)C)NC(=O)[C@H](CO)NC(=O)[C@H](CO)NC(=O)[C@H](CO)NC(=O)[C@H](CC(N)=O)NC(=O)[C@H](CC(=O)O)NC(=O)[C@H](Cc2ccc(O)cc2)NC(=O)[C@H](Cc2ccc(O)cc2)NC(=O)[C@@H](N)CSSC[C@@H](C(=O)N[C@@H](CCCCN)C(=O)N[C@@H](CCCNC(=N)N)C(=O)N[C@@H](Cc2ccc(O)cc2)C(=O)N[C@@H](CCCNC(=N)N)C(=O)N[C@@H](CO)C(=O)O)NC1=O` [THR-184] (H-CYYDNSSSVLCKRYRS-OH; disulfide 1-11), the “relationship of dose to serum levels” value in series [1] was “clear relationship of the dose to serum levels of the compound”. For the same molecule, the “most frequently observed adverse event” value in series [2] (setting [7]) was “headache”; in series [6] (setting [7]), “somnolence”. Also, the serious adverse events entry in [2] (single 60 min iv infusion, 0.3-10 mg/kg, healthy volunteers) is listed as “no serious adverse events observed”; in [6] (60 min iv infusion once daily for five days, 0.3-3 mg/kg, healthy volunteers) it was “no serious adverse events observed”. In addition, the Deaths in [3] (Arm 2 Low Dose 0.02/0.02 mg/kg) is given as 4 #; in series [3] (Arm 3 Mid Dose 0.12/0.02 mg/kg) it was 5 #; in series [3] (setting [8]) it was 4 #; in series [3] (setting [9]) it was 5 #. For the same molecule, the “SAE > 1 (Serious Adverse Events)” value in series [3] (Arm 2 Low Dose 0.02/0.02 mg/kg) is 46.7%; in series [3] (Arm 3 Mid Dose 0.12/0.02 mg/kg) it was 59.6%; in series [3] (setting [8]) it was 42.0%; in series [3] (setting [9]) it was 41.0%. The “effect on CYP450 2C9” value at CYP450 2C9 is listed as “Has no effect on key CYP450 isoforms (1A2, 2C19, 2C9, 2D6, 3A4)”. Moreover, the “effect on CYP450 2C19” value on CYP450 2C19 is recorded as “Has no effect on key CYP450 isoforms (1A2, 2C19, 2C9, 2D6, 3A4)”. Further, the “effect on CYP450 2D6” value at CYP450 2D6 is recorded as “Has no effect on key CYP450 isoforms (1A2, 2C19, 2C9, 2D6, 3A4)”. Besides, the “effect on CYP450 3A4” value on CYP450 3A4 is reported as “Has no effect on key CYP450 isoforms (1A2, 2C19, 2C9, 2D6, 3A4)”. In addition, in the series with bleeding time, the bleeding time result is “Does not affect bleeding time”. Also, in the series on wound healing, the wound healing result is listed as “Does not inhibit wound healing”. In addition, in the series with hemodynamics, the hemodynamics entry was “Does not affect hemodynamics”. In “Off-target survey”, the off-target interactions result is recorded as “Has no off-target interactions (114 targets surveyed)”. Also, in series [4], the “Human Plasma Stability: t1/2” value was 6 min. In addition, the half-life in [5] is 1 h. Besides, the cancer growth entry in the series on cancer growth is “Does not promote cancer growth”. Further, the “effect on CYP450 1A2” value at CYP450 1A2 was “Has no effect on key CYP450 isoforms (1A2, 2C19, 2C9, 2D6, 3A4)”.

B1: BMP-7: Bone Morphogenetic Protein-7, positive control in rat implant assay (protein, UniProt P18075 293-431, looked up)
Bone morphogenetic protein 7: STGSKQRSQNRSKTPKNQEALRMANVAENSSSDQRQACKKHELYVSFRDLGWQDWIIAPEGYAAYYCEGECAFPLNSYMNATNHAIVQTLVHFINPETVPKPCCAPTQLNAISVLYFDDSSNVILKKYRNMVVRACGCH
As to B1, the ectopic bone formation entry with ectopic bone formation is reported as “induced bone formation”.
